Test results reported in patent US20110045076A1, “LINEAR ORDER RELEASE POLYMER” (priority 2008, published 2011).
≈ marks a conversion by molar mass, not a printed value.

Legend:
Assay type in all cases: physicochemical
[1] = Solubility study of dapivirine; conditions: for solubility: 37 °C, aqueous with cosolvent or surfactant or cyclodextrin, thermodynamic from solid; for Time to reach saturation: 37° C.
Procedure: HPLC quantification of dapivirine was conducted as follows. The HPLC system (Agilent 1050) consisted of a solvent module, quaternary pump module and a variable wavelength UV detector. For analysis of release and solubility study samples, an alkyl amide column (Supelcosil™ ABZ+Plus 3 μm, 3.3 cm×4.6 mm ID, Supelco, Bellefonte, Pa.) was used with a gradient of 50:50 acetonitrile and water to 100% acetonitrile (both containing 0.1% v/v trifluoroacetic acid, TFA) in 4 minutes at a flow rate of 1 mL/min. The retention time of dapivirine was 1.1 min. A linear calibration curve of dapivirine was obtained in the range of 1-100 ng/injection (r^2>0.99) at the detection wavelength of 286 nm. The quantification limit of HPLC for dapivirine was 0.65 ng/injection (corresponds to 2 μl of a 1 μM solution) with a signal to noise ratio greater than 10. A longer method was developed for the stability study; a C-18 column (Hypersil BDS-C18, 10 cm×4.0 mm ID, […], Thermo Electron Corporation, Waltham, Mass.) was used with acetonitrile (A) and water (B) both containing 0.1% v/v TFA as eluent at a flow rate of 1 mL/min. A gradient of 30:70 A:B to 70:30 A:B was applied in 7 minutes with retention time of dapivirine at 5.7 minutes. The HPLC method was modified for LC/MS analysis: the flow rate was reduced to 0.5 mL/min; a gradient of 30:70 A:B to 70:30 A:B in 14 minutes; the TFA concentration in the eluents was 0.05% v/v and the retention time for dapivirine was 10.5 minutes.
Solubility studies of dapivirine were conducted to determine the appropriate sink conditions for the in vitro release studies. Dapivirine is a hydrophobic molecule; therefore a co-solvent system that can provide sink conditions (solubility greater than 3 times the maximum concentration achieved in the release medium) during dapivirine release study was needed. Since a co-solvent system consisting of 50:50 v/v i-prOH:water has been utilized previously for long-term release studies of dapivirine from silicone rings^11,18, the solubility of dapivirine was determined in 50:50 and 25:75 v/v i-prOH:water solutions. Additionally, solubility of dapivirine in liposome dispersions was evaluated in an attempt to utilize them as biorelevant sink conditions.^14,21 The liposome dispersions of 10 mg/mL in 25 mM pH 4.2 acetate buffer (osmolarity adjusted to 310 mOsm/kg with NaCl) and 25 mM pH 7.6 phosphate buffer (osmolarity adjusted to 310 mOsm/kg with NaCl) were utilized. (See in vitro release studies in Example 4 for preparation of liposome dispersions.) Dapivirine (10 mg) was dispersed in test solutions (2 mL) and shaken at 37° C. at 200 rpm. Aliquots of 200 μL were withdrawn at 24 h, 48 h and 72 h. At each time point, the aliquots were centrifuged immediately for 2 minutes at 16000 g, 100 μL of the supernatant was diluted 1:10 using 100% isopropanol and quantified by HPLC. The solubility was determined by a calibration curve generated from known concentrations of dapivirine solutions in i-prOH.

[2] = In vitro release of dapivirine from PU-SC rods in 25:75 i-prOH:water
Procedure: The release profile of dapivirine was measured from PU-SC rods for a month after which the release kinetics from rings was evaluated for two weeks to determine the correlation of drug release rate from rods to that from rings. This may enable use of rods in place of rings for release kinetics evaluation thereby minimizing the scale of materials such as ring materials, quantity of drugs and volume of sink solutions required for release studies in case of monolithic IVRs. About 2 cm length segments were cut from the solid cross-sectional dapivirine loaded PU SC rods. The dimensions (length and diameter) and weight of each segment were recorded. […] HPLC analyses were performed every 2 to 5 days and the cumulative release was calculated by integrating the area under the curve using Kaleidagraph software (Synergy Software, Reading, Pa.). […] At the end of 30 days, the segments were wiped dry and the masses and dimensions of the segments were recorded. Similarly, dapivirine release kinetics were measured from rings (20 mg/g SC, 2.5 mg/g SC, 20 mg/g MM and 2.5 mg/g MM) incubated with 50 mL of 25:75 v/v i-prOH:water mixture as sink condition in 125 mL Erlenmeyer flasks with rubber septa […].
At the end of each release study, the swelling ratio was calculated by using the following equation […]

[3] = In vitro release of dapivirine from PU rings (SC and MM) in 25:75 i-prOH:water; conditions: for average release rate: rings, two weeks
Procedure: The release profile of dapivirine was measured from PU-SC rods for a month after which the release kinetics from rings was evaluated for two weeks to determine the correlation of drug release rate from rods to that from rings. This may enable use of rods in place of rings for release kinetics evaluation thereby minimizing the scale of materials such as ring materials, quantity of drugs and volume of sink solutions required for release studies in case of monolithic IVRs. About 2 cm length segments were cut from the solid cross-sectional dapivirine loaded PU SC rods. The dimensions (length and diameter) and weight of each segment were recorded. The segments were incubated with 5 mL 25:75 v/v i-prOH:water as the sink condition in 20 mL septa covered vials at 37° C. in a water bath shaker set at 64±2 rpm. The sink was replaced with fresh co-solvent every 24±0.5 h for 30 days. HPLC analyses were performed every 2 to 5 days and the cumulative release was calculated by integrating the area under the curve using Kaleidagraph software (Synergy Software, Reading, Pa.). The release study for each loading was performed on triplicate samples. At the end of 30 days, the segments were wiped dry and the masses and dimensions of the segments were recorded. Similarly, dapivirine release kinetics were measured from rings (20 mg/g SC, 2.5 mg/g SC, 20 mg/g MM and 2.5 mg/g MM) incubated with 50 mL of 25:75 v/v i-prOH:water mixture as sink condition in 125 mL Erlenmeyer flasks with rubber septa […].
At the end of each release study, the swelling ratio was calculated by using the following equation
[formula] • where • Q=swelling ratio • Mi=mass of ring or rod segments before the release study • Mf=mass ring or rod segments after the release study

solubility ([1]; 10 mg/mL liposome dispersion in pH 4.2 acetate buffer, 10 mg/mL pH 4.2 liposome dispersion): 844 µM (≈ 278 µg/mL) | solubility ([1]; 10 mg/mL liposome dispersion in pH 7.6 phosphate buffer, 10 mg/mL pH 7.6 liposome dispersion): 165 µM (≈ 54.4 µg/mL) | Time to reach saturation ([1]; 10 mg/mL pH 4.2 liposome dispersion): 48 h | Time to reach saturation ([1]; 10 mg/mL pH 7.6 liposome dispersion): 48 h | Time to reach saturation ([1]; 25:75 i-prOH:water): 48 h | dapivirine solubility ([1]; 25:75 v/v i-prOH:water solution): 93 μM/L | solubility ([1]; 25:75 v/v i-prOH:water, 25:75 i-prOH:water): 93 µM (≈ 30.6 µg/mL) | Time to reach saturation ([1]; 50:50 i-prOH:water): 24 h | solubility ([1]; 50:50 v/v i-prOH:water, 50:50 i-prOH:water): 3310 µM (≈ 1090 µg/mL) | release kinetics (order) ([2]; all loadings (2.5-20 mg/g), 25:75 i-prOH:water, 37° C., one month): zero order release kinetics | loaded dapivirine released ([2]; at the end of 30 days): about 20% | average flux from rings (SC) higher than from rods (SC) ([3]; 2.5 mg/g SC): 18% | average flux from rings (SC) higher than from rods (SC) ([3]; 20 mg/g SC): 12% | release kinetics of SC rings vs MM rings ([3]; p>0.05, unpaired two tailed t-test): no significant difference | release rate (order) ([3]; rings SC and MM, 25:75 i-prOH:water, 37° C.): zero order release rate | average release rate ([3]; 2.5 mg/g dapivirine loading, 25:75 i-prOH:water, 37° C.): 64 ± 1 µg/day | average release rate ([3]; 20 mg/g dapivirine loading, 25:75 i-prOH:water, 37° C.): 473 ± 36 µg/day
Structure (SMILES): Cc1cc(C)c(Nc2ccnc(Nc3ccc(C#N)cc3)n2)c(C)c1 [dapivirine, 4-[[4-[(2,4,6-trimethylphenyl)amino]pyrimidin-2-yl]amino]benzonitrile]
